Reference: patent publication US7335674B2, “Benzothiazole-4,7-diones and benzoxazole-4,7-diones with substituents in position 5 or 6 and method for production thereof” (Societe de Conseils de Recherches et d'Applications …, priority 2003, dated 2008)

Assays:
[1] = tested on: Mia-Paca2 (human pancreas cancer cells); assay: Antiproliferative activity, WST1 colorimetric test, Mia-PaCa2; type: cell-based; conditions: MIA PaCa-2, Mia-Paca2, treated 96 hours, up to 10 μM, read-out: IC50 on the cell proliferation of the Mia-Paca2 lines
Protocol: (§1) iii) Characterization of the Antiproliferative Activity:
(§2) By way of example, the effect of a treatment on two human cell lines Mia-Paca2 and DU145 by the compounds of the examples described previously will be studied. The cell lines DU145 (human prostate cancer cells) and Mia-PaCa2 (human pancreas cancer cells) were acquired from the American Tissue Culture Collection (Rockville, Md., USA). The cells placed in 80 μl of Dulbecco's Modified Eagle's medium (Gibco-Brl, Cergy-Pontoise, France) completed with 10% foetal calf serum inactivated by heating (Gibco-Brl, Cergy-Pontoise, France), 50,000 units/l of penicillin and 50 mg/l of streptomycin (Gibco-Brl, 10378-057, Cergy-Pontoise, France), and 2 mM of glutamine (Gibco-Brl, Cergy-Pontoise, France) were seeded on a 96-well plate on day 0. The cells were treated on day 1 for 96 hours with increasing concentrations of each of the compounds to be tested up to 10 μM. At the end of this period, quantification of cell proliferation is evaluated by a colorimetric test based on the cleavage of the tetrazolium salt WST1 by the mitochondrial dehydrogenases in viable cells leading to the formation of formazan (Boehringer Mannheim, Meylan, France). These tests are carried out in duplicate with 8 determinations per concentration tested. For each compound to be tested, the values included in the linear part of the sigmoid were retained for a linear regression analysis and used to estimate the inhibitory concentration IC50. The products are solubilized in dimethylsulphoxide (DMSO) at 10^−2 M and finally used in culture with 0.1% DMSO.

[2] = tested on: DU145 (human prostate cancer cells); assay: Antiproliferative activity, WST1 colorimetric test, DU145; type: cell-based; conditions: DU-145, treated 96 hours, up to 10 μM, read-out: IC50 on the cell proliferation of the DU-145 lines
Protocol: as §1, §2

Structure (SMILES) | melting point [°C] | IC50 [1] [µM] | IC50 [2] [µM]
CN(C)CCNC1=CC(=O)c2nc(-c3ccccc3Br)oc2C1=O [Example 28, 2-(2-bromophenyl)-6-{[2-(dimethylamino)ethyl]amino}-1,3-benzoxazole4,7-dione] | 147 to 148 | ≤ 10 | ≤ 10
CN(C)CCNC1=CC(=O)c2nc(-c3cccc(Br)c3)oc2C1=O [Example 29, 2-(3-bromophenyl)-6-{[2-(dimethylamino)ethyl]amino}-1,3-benzoxazole4,7-dione] | 174 to 175 | ≤ 10 | ≤ 10
CN(C)CCNC1=CC(=O)c2nc(-c3cccc(Cl)c3)oc2C1=O [Example 30, 2-(3-chlorophenyl)-6-{[2-(dimethylamino)ethyl]amino}-1,3-benzoxazole4,7-dione] | 174 to 175 | ≤ 10 | ≤ 10
CN(C)CCNC1=CC(=O)c2nc(-c3ccc(Br)cc3)oc2C1=O [Example 31, 2-(4-bromophenyl)-6-{[2-(dimethylamino)ethyl]amino}-1,3-benzoxazole-4,7-dione] | 181 to 182 | ≤ 10 | ≤ 10
CN(C)CCNC1=CC(=O)c2nc(-c3cc(Br)cc(Br)c3)oc2C1=O [Example 32, 2-(3,5-dibromophenyl)-6-{[2-(dimethylamino)ethyl]amino}-1,3-benzoxazole-4,7-dione] | 206 to 207 | ≤ 10 | ≤ 10
CN(C)CCNC1=CC(=O)c2nc(-c3ccc(F)cc3)oc2C1=O [Example 33, 6-{[2-(dimethylamino)ethyl]amino}-2-(4-fluorophenyl)-1,3-benzoxazole4,7-dione] | 169 to 170 | ≤ 10 | ≤ 10
CN(C)CCNC1=CC(=O)c2nc(-c3cc(F)cc(F)c3)oc2C1=O [Example 34, 2-(3,5-difluorophenyl)-6-{[2-(dimethylamino)ethyl]amino}-1,3-benzoxazole-4,7-dione] | 176 to 177 | ≤ 10 | ≤ 10
CN(C)CCNC1=CC(=O)c2nc(-c3cccc(F)c3F)oc2C1=O [Example 35, 2-(2,3-difluorophenyl)-6-{[2-(dimethylamino)ethyl]amino}-1,3-benzoxazole-4,7-dione] | 178 to 179 | ≤ 10 | ≤ 10
CN(C)CCNC1=CC(=O)c2nc(-c3cc(F)c(F)c(F)c3)oc2C1=O [Example 36, 6-{[2-(dimethylamino)ethyl]amino}-2-(3,4,5-trifluorophenyl)-1,3-benzoxazole4,7-dione] | 188 to 189 | ≤ 10 | ≤ 10
Cc1cc(-c2nc3c(o2)C(=O)C(NCCN(C)C)=CC3=O)ccc1Br [Example 37, 2-(4-bromo-3-methylphenyl)-6-{[2-(dimethylamino)ethyl]amino}-1,3-benzoxazole-4,7-dione] | 165 to 166 | ≤ 10 | ≤ 10
CCc1ccc(-c2nc3c(o2)C(=O)C(NCCN(C)C)=CC3=O)cc1 [Example 38, 6-{[2-(dimethylamino)ethyl]amino}-2-(4-ethylphenyl)-1,3-benzoxazole-4,7-dione] | 151 to 152 | ≤ 10 | ≤ 10
CN(C)CCNC1=CC(=O)c2nc(-c3ccc(Br)cc3Cl)oc2C1=O [Example 39, 2-(4-bromo-2-chlorophenyl)-6-{[2-(dimethylamino)ethyl]amino}-1,3-benzoxazole4,7-dione] | 163 to 164 | ≤ 10 | ≤ 10
COc1ccc(-c2nc3c(o2)C(=O)C(NCCN(C)C)=CC3=O)cc1OC [Example 41, 2-(3,4-dimethoxyphenyl)-6-{[2-(dimethylamino)ethyl]amino}-1,3-benzoxazole-4,7-dione] | 181 to 182 | ≤ 10 | ≤ 10
CN(C)CCNC1=CC(=O)c2nc(Cc3c(Cl)cccc3Cl)oc2C1=O [Example 42, 2-(2,6-dichlorobenzyl)-6-{[2-(dimethylamino)ethyl]amino}-1,3-benzoxazole4,7-dione] | 172 to 173 | ≤ 10 | ≤ 10
CN(C)CCNC1=CC(=O)c2nc(Cc3c(F)cccc3Cl)oc2C1=O [Example 43, 2-(2-chloro-6-fluorobenzyl)-6-{[2-(dimethylamino)ethyl]amino}-1,3-benzoxazole4,7-dione] | 178 to 179 | ≤ 10 | ≤ 10
CN(C)CCNC1=CC(=O)c2nc(Cc3cccc4ccccc34)oc2C1=O [Example 44, 6-{[2-(dimethylamino)ethyl]amino}-2-(1-naphthylmethyl)-1,3-benzoxazole-4,7-dione] | 153 to 154 | ≤ 10 | ≤ 10
O=C1C=C(NCCN2CCCC2)C(=O)c2oc(-c3ccccc3Br)nc21 [Example 45, 2-(2-bromophenyl)-6-[(2-pyrrolidin-1-ylethyl)amino]-1,3-benzoxazole-4,7-dione] | 123 to 124 | ≤ 10 | ≤ 10
O=C1C=C(NCCN2CCCC2)C(=O)c2oc(-c3cccc(Br)c3)nc21 [Example 46, 2-(3-bromophenyl)-6-[(2-pyrrolidin-1-ylethyl)amino]-1,3-benzoxazole-4,7-dione] | 163 to 164 | ≤ 10 | ≤ 10
O=C1C=C(NCCN2CCCC2)C(=O)c2oc(-c3cccc(Cl)c3)nc21 [Example 47, 2-(3-chlorophenyl)-6-[(2-pyrrolidin-1-ylethyl)amino]-1,3-benzoxazole4,7-dione] | 161 to 162 | ≤ 10 | ≤ 10
O=C1C=C(NCCN2CCCC2)C(=O)c2oc(-c3ccc(Br)cc3)nc21 [Example 48, 2-(4-bromophenyl)-6-[(2-pyrrolidin-1-ylethyl)amino]-1,3-benzoxazole-4,7-dione] | 165 to 166 | ≤ 10 | ≤ 10
O=C1C=C(NCCN2CCCC2)C(=O)c2oc(-c3cc(Br)cc(Br)c3)nc21 [Example 49, 2-(3,5-dibromophenyl)-6-[(2-pyrrolidin-1-ylethyl)amino]-1,3-benzoxazole-4,7-dione] | 202 to 203 | ≤ 10 | ≤ 10
O=C1C=C(NCCN2CCCC2)C(=O)c2oc(-c3ccc(F)cc3)nc21 [Example 50, 2-(4-fluorophenyl)-6-[(2-pyrrolidin-1-ylethyl)amino]-1,3-benzoxazole-4,7-dione] | 170 to 171 | ≤ 10 | ≤ 10
O=C1C=C(NCCN2CCCC2)C(=O)c2oc(-c3cc(F)cc(F)c3)nc21 [Example 51, 2-(3,5-difluorophenyl)-6-[(2-pyrrolidin-1-ylethyl)amino]-1,3-benzoxazole-4,7-dione] | 163 to 164 | ≤ 10 | ≤ 10
O=C1C=C(NCCN2CCCC2)C(=O)c2oc(-c3cc(F)c(F)c(F)c3)nc21 [Example 52, 6-[(2-pyrrolidin-1-ylethyl)amino]-2-(3,4,5-trifluorophenyl)-1,3-benzoxazole4,7-dione] | 171 to 172 | ≤ 10 | ≤ 10
Cc1cc(-c2nc3c(o2)C(=O)C(NCCN2CCCC2)=CC3=O)ccc1Br [Example 53, 2-(4-bromo-3-methylphenyl)-6-[(2-pyrrolidin-1-ylethyl)amino]-1,3-benzoxazole-4,7-dione] | 171 to 172 | ≤ 10 | ≤ 10
O=C1C=C(NCCN2CCCC2)C(=O)c2oc(-c3ccc(Br)cc3Cl)nc21 [Example 55, 2-(4-bromo-2-chlorophenyl)-6-[(2-pyrrolidin-1-ylethyl)amino]-1,3-benzoxazole-4,7-dione] | 153 to 154 | ≤ 10 | ≤ 10
COc1ccc(-c2nc3c(o2)C(=O)C(NCCN2CCCC2)=CC3=O)cc1OC [Example 57, 2-(3,4-dimethoxyphenyl)-6-[(2-pyrrolidin-1-ylethyl)amino]-1,3-benzoxazole-4,7-dione] | 198.5 to 199.5 | ≤ 10 | ≤ 10
O=C1C=C(NCCN2CCCC2)C(=O)c2oc(Cc3c(F)cccc3Cl)nc21 [Example 58, 2-(2-chloro-6-fluorobenzyl)-6-[(2-pyrrolidin-1-ylethyl)amino]-1,3-benzoxazole-4,7-dione] | 173 to 174 | ≤ 10 | ≤ 10
O=C1C=C(NCCN2CCCC2)C(=O)c2oc(-c3ccc4c(c3)OCO4)nc21 [Example 59, 2-(1,3-benzodioxol-5-yl)-6-[(2-pyrrolidin-1-ylethyl)amino]-1,3-benzoxazole4,7-dione] | 171 to 172 | ≤ 10 | ≤ 10
